These results are taken from ChEMBL document CHEMBL1154409, “Contribution of the CmeABC efflux pump to macrolide and tetracycline resistance in Campylobacter jejuni” (2007).

The target of test [1] is T1, CmeA (Campylobacter jejuni) (UniProt Q8RTE5).
T1 sequence (whole entry): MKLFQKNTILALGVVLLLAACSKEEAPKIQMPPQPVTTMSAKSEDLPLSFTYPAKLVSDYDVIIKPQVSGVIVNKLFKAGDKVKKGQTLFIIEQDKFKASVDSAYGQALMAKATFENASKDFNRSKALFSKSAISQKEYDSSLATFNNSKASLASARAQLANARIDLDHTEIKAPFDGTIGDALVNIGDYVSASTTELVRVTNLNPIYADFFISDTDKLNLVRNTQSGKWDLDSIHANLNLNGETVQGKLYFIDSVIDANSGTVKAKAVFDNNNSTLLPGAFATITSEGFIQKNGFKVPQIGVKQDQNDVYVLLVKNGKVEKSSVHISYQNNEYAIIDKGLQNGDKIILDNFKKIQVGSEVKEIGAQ
In words: Inactivation of CmeABC efflux pump in Campylobacter jejuni 25-19 assessed as change in clarithromycin MIC by agar dilution method.

Test [2] has as its system Campylobacter jejuni. Kind of test: Inactivation of CmeABC efflux pump in Campylobacter jejuni 25-19 assessed as change in erythromycin MIC by agar dilution method. (In general: In agar dilution, organisms are placed on agar that contains the substance at set levels.)
Test [3] has as its system Campylobacter jejuni. In words: Antibacterial activity against Campylobacter jejuni UA709 carrying A2074C mutation in 23S rRNA by agar dilution method. The test is classed as functional.
The subject of test [4] is Campylobacter jejuni. In words: Antibacterial activity against Campylobacter jejuni 001B-40 cmeB::kanamycin-resistant mutant by agar dilution method. The test is classed as functional.
The subject of test [5] is Campylobacter jejuni. Kind of test: Ratio of MIC for Campylobacter jejuni 001B-22 carrying A2075G mutation in 23S rRNA to MIC for Campylobacter jejuni 001B-22 cmeB::kanamycin-resistant mutant. The format is functional.
The test system of test [6] is Campylobacter jejuni. Kind of test: Antibacterial activity against Campylobacter jejuni 001B-22 carrying A2075G mutation in 23S rRNA by agar dilution method. The test is classed as functional.
The test system of test [7] is Campylobacter jejuni. Kind of test: Ratio of MIC for Campylobacter jejuni 001B-40 carrying A2075G mutation in 23S rRNA to MIC for Campylobacter jejuni 001B-40 cmeB::kanamycin-resistant mutant. The test is classed as functional.
The test system of test [8] is Campylobacter jejuni. Kind of test: Antibacterial activity against Campylobacter jejuni 001B-40 carrying A2075G mutation in 23S rRNA by agar dilution method. The test is classed as functional.
Test [9] deals with Campylobacter jejuni. Kind of test: Antibacterial activity against Campylobacter jejuni UA709 cmeB::kanamycin-resistant mutant by agar dilution method. The format is functional.
Test [10] relates to Campylobacter jejuni. Kind of test: Antibacterial activity against Campylobacter jejuni 001B-22 cmeB::kanamycin-resistant mutant by agar dilution method. The test is classed as functional.
Test [11] has as its system Campylobacter jejuni. Kind of test: Antibacterial activity against Campylobacter jejuni 23-51 assessed as inhibition of CmeABC efflux pump by agar dilution method. The test is classed as functional.
For test [12], the system named is Escherichia coli. Kind of test: Antibacterial activity against Escherichia coli EW1b containing pDOB47. The format is functional.
Test [13] deals with Campylobacter jejuni. In words: Antibacterial activity against Campylobacter jejuni 15-21 cmeB:: Kanamycin-resistant mutant by agar dilution method. The test is classed as functional.
The subject of test [14] is Campylobacter jejuni. In words: Antibacterial activity against Campylobacter jejuni 15-21 by […]. The format is functional. (In general: Agar diffusion results depend on both activity and mobility in agar.)
Test [15] has as its system Campylobacter jejuni. In words: Antibacterial activity against Campylobacter jejuni 25-45 by agar dilution method. The format is functional.
For test [16], the system named is Campylobacter jejuni. In words: Antibacterial activity against Campylobacter jejuni 25-45 cmeB:: Kanamycin-resistant mutant by agar dilution method. The test is classed as functional.
The test system of test [17] is Campylobacter jejuni. In words: Antibacterial activity against Campylobacter jejuni 25-19 cmeB:: Kanamycin-resistant mutant by agar dilution method. The format is functional.
Test [18] has as its system Escherichia coli. In words: Antibacterial activity against wild type Escherichia coli DH5alpha by agar dilution assay. The test is classed as functional.
The test system of test [19] is Campylobacter jejuni. Kind of test: Antibacterial activity against Campylobacter jejuni 81-176 carrying tet(O)+ gene by agar dilution method. The format is functional.
The subject of test [20] is Campylobacter jejuni. Kind of test: Antibacterial activity against Campylobacter jejuni 25-19 by agar dilution method. The test is classed as functional.
The test system of test [21] is Campylobacter jejuni. Kind of test: Antibacterial activity against Campylobacter jejuni 81-176 cmeB: kanamycin-resistant mutant carrying tet(O)+ gene. The test is classed as functional.
For test [22], the system named is Campylobacter jejuni. Kind of test: Antibacterial activity against Campylobacter jejuni 23-51 cme:: Kanamycin-resistant mutant assessed by agar dilution method. The test is classed as functional.

In brackets after ≈: the same amount, converted by molar mass. Peptide text beside a SMILES is read from it. * marks the point of attachment. βNA = c1ccc2cc(N*)ccc2c1

Regarding `N=C(N)NCCC[C@H](NC(=O)[C@@H](N)Cc1ccccc1)C(=O)Nc1ccc2ccccc2c1` (H-Phe-Arg-βNA), the results for the fold change (FC) in test [1] and in test [2] were 2 and 3, respectively.
As for `CC[C@H]1OC(=O)[C@H](C)[C@@H](O[C@H]2C[C@@](C)(OC)[C@@H](O)[C@H](C)O2)[C@H](C)[C@@H](O[C@@H]2O[C@H](C)C[C@H](N(C)C)[C@H]2O)[C@](C)(OC)C[C@@H](C)C(=O)[C@H](C)[C@@H](O)[C@]1(C)O` [CLARITHROMYCIN], the minimum inhibitory concentration (MIC) in test [3] was 128 µg/mL (≈ 171 µM); in test [4], 8 µg/mL (≈ 10.7 µM); in test [6], 64 µg/mL (≈ 85.6 µM); in test [8], 265 µg/mL (≈ 354 µM); in test [9] it was 128 µg/mL (≈ 171 µM); in test [10] it was 4 µg/mL (≈ 5.35 µM). Also, the “fold change (FC)” value in test [5] was 16; in test [2] it was 2; in test [7], over 32.
Regarding `CC[C@H]1OC(=O)[C@H](C)[C@@H](O[C@H]2C[C@@](C)(OC)[C@@H](O)[C@H](C)O2)[C@H](C)[C@@H](O[C@@H]2O[C@H](C)C[C@H](N(C)C)[C@H]2O)[C@](C)(O)C[C@@H](C)C(=O)[C@H](C)[C@@H](O)[C@]1(C)O` [ERYTHROMYCIN], the MIC in test [3] was 1020 µg/mL (≈ 1400 µM); in test [4], 8 µg/mL (≈ 10.9 µM); in test [6], 256 µg/mL (≈ 349 µM); in [8], over 1020 µg/mL; in [9] it was 1020 µg/mL (≈ 1400 µM); in [10], 4 µg/mL (≈ 5.45 µM). The “fold change (FC)” value in test [5] is 64.
On to `CN(C)[C@@H]1C(O)=C(C(N)=O)C(=O)[C@@]2(O)C(O)=C3C(=O)c4c(O)cccc4[C@@](C)(O)[C@H]3C[C@@H]12` [TETRACYCLINE], for which the minimal inhibitory concentration (MIC) in [11] was 512 µg/mL (≈ 1150 µM); in test [12], 16 µg/mL (≈ 36 µM); in [13], 4 µg/mL (≈ 9 µM); in test [14] it was 128 µg/mL (≈ 288 µM); in test [15], 256 µg/mL (≈ 576 µM); in test [16], 8 µg/mL (≈ 18 µM). Besides, the minimal inhibitory concentration (MIC) in test [17] was found to be 4 µg/mL (≈ 9 µM); in test [18], 64 µg/mL (≈ 144 µM); in test [19], 32 µg/mL (≈ 72 µM); in test [20], 64 µg/mL (≈ 144 µM); in test [21], 2 µg/mL (≈ 4.5 µM); in test [22] it was 8 µg/mL (≈ 18 µM).

As usually defined, the MIC is the lowest concentration that inhibits growth of the organism.
